Tests used:
[1] = tested on: human renal cancer (ACHN); experiment: Anticancer effects on human renal cancer (ACHN) xenograft
Protocol: Nude mice were purchased and stored in a specific pathogen free (SPF) room of the Korea Research Institute of Bioscience and Biotechnology, and allowed to acclimate for 1 week before use. Human renal cancer, that is, ACHN cells were injected subcutaneously into each nude mouse at a concentration of 1.2×10^7 cells. […] As a positive control group, adriamycin was administered intravenously at a concentration of 2 mg/kg once a week for total 4 times.
Standard deviations (SDs) and p-values of all test results were calculated using ANOVA (Prisim. GraphPad software, USA) and student's t-test.

[2] = tested on: human colon cancer (SW620); experiment: Anticancer effects on human colon cancer (SW620) xenograft; type: in vivo, nude mice
Protocol: Nude mice were purchased and stored in a specific pathogen free (SPF) room of the Korea Research Institute of Bioscience and Biotechnology, and allowed to acclimate for 1 week before use. Human colon cancer, that is, SW620 cells were injected subcutaneously into each nude mouse at a concentration of 6×10^6 cells. […] As a positive control group, adriamycin was administered intravenously at a concentration of 2 mg/kg once a week for total 4 times.
(§1) Standard deviations (SDs) and p-values of all test results were calculated using ANOVA (Prisim, GraphPad software, USA) and student's t-test.

[3] = tested on: human prostate cancer (PC-3); experiment: Anticancer effects on human prostate cancer (PC-3) xenograft; type: in vivo, nude mice
Protocol: Nude mice were purchased and stored in a specific pathogen free (SPF) room of the Korea Research Institute of Bioscience and Biotechnology, and allowed to acclimate for 1 week before use. Human prostate cancer, that is, PC-3 cells were injected subcutaneously into each nude mouse at a concentration of 9×10^6 cells. […] As a positive control group, adriamycin was administered intravenously at a concentration of 2 mg/kg once a week for total 4 times.
as §1

[4] = tested on: human melanoma cancer (LOX-IMV1); experiment: Anticancer effects on human melanoma cancer (LOX-IMV1) xenograft
Protocol: Nude mice were purchased and stored in a specific pathogen free (SPF) room of the Korea Research Institute of Bioscience and Biotechnology, and allowed to acclimate for 1 week before use. Human melanoma cancer, that is, LOX-IMV1 cells were injected subcutaneously into each nude mouse at a concentration of 1.5×10^6 cells. […] As a positive control group, adriamycin was administered intravenously at a concentration of 2 mg/kg once a week for total 3 times.
as §1

[5] = tested on: human pancreatic cancer (AsPC-1); experiment: Anticancer effects on human pancreatic cancer (AsPC-1) xenograft; type: in vivo, nude mice
Protocol: Nude mice were purchased and stored in a specific pathogen free (SPF) room of the Korea Research Institute of Bioscience and Biotechnology, and allowed to acclimate for 1 week before use. Human pancreatic cancer, that is, AsPC1 cells were injected subcutaneously into each nude mouse at a concentration of 9×10^6 cells. […] As a positive control group, adriamycin was administered intravenously at a concentration of 2 mg/kg once a week for total 4 times.
as §1

[6] = adriamycin 2 mg/kg i.v., day 28
[7] = adriamycin 2 mg/kg i.v., day 25
[8] = day 25 compared with Day-1 (100%), adriamycin 2 mg/kg
[9] = adriamycin 2 mg/kg i.v., day 22
[10] = adriamycin 2 mg/kg i.v., day 15

In the case of COc1cccc2c1C(=O)c1c(O)c3c(c(O)c1C2=O)C[C@@](O)(C(=O)CO)C[C@@H]3O[C@H]1C[C@H](N)[C@H](O)[C@H](C)O1 [adriamycin], the “growth inhibition (tumor size)” value [1, 6] was 40%, the “growth inhibition (tumor weight)” value [1, 6] was 37% and the tumor size [1, 6] was 192±44 mm^3. For the same molecule, the tumor weight [1, 6] was 409 ± 41 mg, the “Tumor growth rate (%) compared to the control group” value (“Tumor growth rate (%)” below) ([1]; adriamycin (2 mg/kg), day 28, ACHN) was 63 ± 6% and the body weight change ([1]; day 28 compared with Day-1 (100%), adriamycin 2 mg/kg) was 95%. The “growth inhibition (tumor size)” value [2, 7] was 48%, the “growth inhibition (tumor weight)” value [2, 7] was 49% and the tumor size [2, 7] was 142±97 mm^3. The tumor weight [2, 7] was 834 ± 306 mg, the “Tumor growth rate (%)” value ([2]; adriamycin (2 mg/kg), day 25, SW-620) was 54 ± 28% and the body weight change [2, 8] was 114%. The “growth inhibition (tumor size)” value [3, 9] was 40%, the “growth inhibition (tumor weight)” value [3, 9] was 40% and the tumor size [3, 9] was 225±59 mm^3. The tumor weight [3, 9] was 808 ± 156 mg, the “Tumor growth rate (%)” value ([3]; adriamycin (2 mg/kg), day 22, PC-3) was 60 ± 12% and the body weight change ([3]; day 22 compared with Day-1 (100%), adriamycin 2 mg/kg) was 102%. For the same molecule, the “growth inhibition (tumor size)” value [4, 10] was 72%, the “growth inhibition (tumor weight)” value [4, 10] was 70% and the tumor weight [4, 10] was 496 ± 306 mg. For the same molecule, the “Tumor growth rate (%)” value ([4]; adriamycin (2 mg/kg), day 15, LOX-IMVI) was 30 ± 18%, the body weight change ([4]; day 15 compared with Day-1, adriamycin 2 mg/kg) was 122% and the “growth inhibition (tumor size)” value [5, 7] was 48%. For the same molecule, the “growth inhibition (tumor weight)” value [5, 7] was 44%, the tumor size [5, 7] was 130±28 mm^3 and the tumor weight [5, 7] was 473 ± 64 mg. For the same molecule, the “Tumor growth rate (%)” value ([5]; adriamycin (2 mg/kg), day 25, AsPC-1) was 55 ± 8% and the body weight change [5, 8] was 125%.
